Where two headings read alike, the source gives them in different places.
Assays:
[1] = Toxicokinetic evaluation in pregnant rats (Example 3); type: in vivo, rat; settings: for Cmax / AUC(0-t): female, Sprague-Dawley, rat, plasma, po; for AUC(0-t): read-out: Mean AUC0-24 in plasma of pregnant rats
Text: Animals received in-life and postmorten evaluations.

OATP1B1 = target: T1, OATP1B1 (Homo sapiens, UniProt Q9Y6L6); test: Transporter systems in vitro: OATP1B1; type: in vitro ADME; settings: clinically relevant concentrations
T1 sequence (Q9Y6L6 1-691): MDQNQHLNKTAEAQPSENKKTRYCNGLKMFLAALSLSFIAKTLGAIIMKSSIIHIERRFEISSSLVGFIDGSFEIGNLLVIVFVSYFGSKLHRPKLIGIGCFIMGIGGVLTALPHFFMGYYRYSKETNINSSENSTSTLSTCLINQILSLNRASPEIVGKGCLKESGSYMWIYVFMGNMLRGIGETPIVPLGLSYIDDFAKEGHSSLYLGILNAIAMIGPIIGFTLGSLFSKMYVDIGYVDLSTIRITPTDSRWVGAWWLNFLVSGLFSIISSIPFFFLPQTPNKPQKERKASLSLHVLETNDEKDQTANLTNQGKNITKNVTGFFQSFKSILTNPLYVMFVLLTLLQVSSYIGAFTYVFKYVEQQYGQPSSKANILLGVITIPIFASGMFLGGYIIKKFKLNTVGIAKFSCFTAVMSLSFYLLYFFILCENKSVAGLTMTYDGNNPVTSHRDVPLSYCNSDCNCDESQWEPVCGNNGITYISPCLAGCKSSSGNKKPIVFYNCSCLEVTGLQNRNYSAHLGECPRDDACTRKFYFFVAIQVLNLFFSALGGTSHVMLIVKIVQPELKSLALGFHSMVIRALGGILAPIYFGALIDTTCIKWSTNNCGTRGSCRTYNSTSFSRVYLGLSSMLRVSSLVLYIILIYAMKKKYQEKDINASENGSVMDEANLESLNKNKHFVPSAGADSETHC

[2] = 15 mg/kg/day, GD 6, belumosudil 15 mg base/kg oral
[3] = 15 mg/kg/day, GD 17, belumosudil 15 mg base/kg oral
[4] = 50 mg/kg/day, GD 6, belumosudil 50 mg base/kg oral
[5] = 50 mg/kg/day, GD 17, belumosudil 50 mg base/kg oral
[6] = 150 mg/kg/day, GD 6, belumosudil 150 mg base/kg oral
[7] = 150 mg/kg/day, GD 17, belumosudil 150 mg base/kg oral

With `CC(C)NC(=O)COc1cccc(-c2nc(Nc3ccc4[nH]ncc4c3)c3ccccc3n2)c1` [belumosudil, 2-{3-[4-(1H-indazol-5-ylamino)-2-quinazolinyl]phenoxy}-N-(propan-2-yl) acetamide] the Cmax [1, 2] was 1530 ng/mL, the AUC(0-t) [1, 2] was 9750 ng·h/mL and the Cmax [1, 3] was 1320 ng/mL. It also gave an AUC(0-t) [1, 3] of 11900 ng·h/mL, a Cmax [1, 4] of 3000 ng/mL and an AUC(0-t) [1, 4] of 37700 ng·h/mL. For the same compound, the Cmax [1, 5] was 4360 ng/mL, the AUC(0-t) [1, 5] was 33300 ng·h/mL and the Cmax [1, 6] was 5150 ng/mL. For the same compound, the AUC(0-t) [1, 6] was 89400 ng·h/mL, the Cmax [1, 7] was 7800 ng/mL and the AUC(0-t) [1, 7] was 88300 ng·h/mL. The “accumulation after multiple dosing of belumosudil” value ([1]; pregnant rats) was “No apparent accumulation” and the OATP1B1 inhibition (OATP1B1) was “inhibits”.

Reference: US20240277713A1 (Kadmon Corporation, LLC, priority 2022, published 2024)
